# Experimental data as given in PubChem BioAssay (NCI).
#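 Tested at 5 concentrations; 48 h exposure; 96-well plates; endpoints linearly interpolated, else capped at highest concentration. The concentration for 50% growth inhibition is given as GI50. TGI marks complete inhibition of growth.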
# Tests used:
# Test in all cases: DTP human tumour cell line panel, 48 h
# NCI-H23 lung = test system: NCI-H23 lung
# SK-MEL-2 melanoma = test system: SK-MEL-2 melanoma
# SK-OV-3 ovarian = test system: SK-OV-3 ovarian
# HOP-62 NSCLC = test system: HOP-62 NSCLC
# LOX IMVI melanoma = test system: LOX IMVI melanoma
# HCT-15 colon = test system: HCT-15 colon
# K-562 leukemia = test system: K-562 leukemia
# SNB-75 CNS = test system: SNB-75 CNS
# HT29 colon = test system: HT29 colon
# OVCAR-3 ovarian = test system: OVCAR-3 ovarian
Structure (SMILES),TGI (NCI-H23 lung),TGI (SK-MEL-2 melanoma),TGI (SK-OV-3 ovarian),TGI (HOP-62 NSCLC),TGI (LOX IMVI melanoma),TGI (HCT-15 colon),TGI (K-562 leukemia),TGI (SNB-75 CNS),TGI (HT29 colon),TGI (OVCAR-3 ovarian),GI50 (NCI-H23 lung),GI50 (SK-MEL-2 melanoma),GI50 (SK-OV-3 ovarian),GI50 (HOP-62 NSCLC),GI50 (SNB-75 CNS),GI50 (OVCAR-3 ovarian)
Cc1c2c(n3c(nc4ccccc43)c1C#N)SCC2,> 10 µM,> 10 µM,> 10 µM,> 10 µM,> 10 µM,> 10 µM,> 10 µM,> 10 µM,> 10 µM,> 10 µM,,,,,,
CN(C)N=Nc1ccc([N+](=O)[O-])cc1C(N)=O,> 100 µM,> 100 µM,> 100 µM,> 100 µM,> 100 µM,> 100 µM,> 100 µM,> 100 µM,> 100 µM,> 100 µM,,,,,,
Cc1c(CNc2ccc(Cl)c(C(=O)NC(CC(=O)O)C(=O)O)c2)ccc2nc(N)nc(N)c12 (stereo not given),> 1000 µM,> 1000 µM,> 1000 µM,,> 1000 µM,> 1000 µM,> 1000 µM,> 1000 µM,> 1000 µM,> 1000 µM,0.357 µM,> 1000 µM,800 µM,0.557 µM,122 µM,16.8 µM
Cc1cc(S(=O)(=O)Nc2nc3ccsc3c(=O)n2N)c(S)cc1Cl,> 100 µM,> 100 µM,> 100 µM,> 100 µM,> 100 µM,> 100 µM,> 100 µM,> 100 µM,> 100 µM,> 100 µM,,,,,,
O=c1c2ccccc2oc2c1ccc1ncccc12,> 100 µM,> 100 µM,34.4 µM,78.1 µM,43.8 µM,> 100 µM,> 100 µM,95.5 µM,> 100 µM,89.6 µM,,,,,,
Nn1c(Cc2ccc(Cl)cc2)n[nH]c1=O,> 100 µM,> 100 µM,> 100 µM,> 100 µM,> 100 µM,> 100 µM,> 100 µM,> 100 µM,> 100 µM,> 100 µM,,,,,,
COc1c(-c2cc(C)c(Cl)c(=O)[nH]2)c(O)c(OC)c2occc12,> 100 µM,> 100 µM,> 100 µM,> 100 µM,> 100 µM,> 100 µM,> 100 µM,> 100 µM,> 100 µM,> 100 µM,,,,,,
O=C(NCC1Nc2ccncc2S(=O)(=O)N1)c1ccc(Br)cc1 (stereo not given),> 100 µM,57.4 µM,> 100 µM,> 100 µM,> 100 µM,> 100 µM,> 100 µM,> 100 µM,> 100 µM,> 100 µM,,,,,,
O=C(O)Cc1ccc(Oc2nc3ccccc3nc2-c2cccs2)cc1,> 100 µM,> 100 µM,> 100 µM,> 100 µM,> 100 µM,> 100 µM,> 100 µM,83.2 µM,> 100 µM,> 100 µM,,,,,,
CN(Cc1c2ccccc2cc2ccccc12)S(=O)(=O)c1ccc(-c2c3nc(c(-c4ccc(S(=O)(=O)N(C)Cc5c6ccccc6cc6ccccc56)cc4)c4ccc([nH]4)c(-c4ccc(S(=O)(=O)N(C)Cc5c6ccccc6cc6ccccc56)cc4)c4nc(c(-c5ccc(S(=O)(=O)N(C)Cc6c7ccccc7cc7ccccc67)cc5)c5ccc2[nH]5)C=C4)C=C3)cc1,> 100 µM,> 100 µM,> 100 µM,84.6 µM,> 100 µM,> 100 µM,> 100 µM,56.8 µM,> 100 µM,> 100 µM,,,,,,
Cc1cn(C2CC(O)C(CO)C2C)c(=O)[nH]c1=O (stereo not given),> 100 µM,> 100 µM,> 100 µM,> 100 µM,> 100 µM,> 100 µM,> 100 µM,> 100 µM,> 100 µM,> 100 µM,,,,,,
COc1ccc(/C=N\N2CC(=O)N3C4C=CC(CC4)N3C2=O)cc1 (stereo not given),> 100 µM,> 100 µM,> 100 µM,> 100 µM,> 100 µM,> 100 µM,> 100 µM,> 100 µM,> 100 µM,> 100 µM,,,,,,
COc1cc(C2c3cc4c(cc3C(O)C3CCC(=O)N23)OCO4)cc(OC)c1OC (stereo not given),> 100 µM,> 100 µM,> 100 µM,> 100 µM,> 100 µM,> 100 µM,> 100 µM,> 100 µM,76.7 µM,> 100 µM,,,,,,
CCNC(=S)N/N=C/c1cc(OC)ccc1O,> 100 µM,> 100 µM,> 100 µM,> 100 µM,> 100 µM,> 100 µM,> 100 µM,> 100 µM,> 100 µM,> 100 µM,,,,,,
Cn1ccnc1CCc1ccc(F)cc1F,> 100 µM,> 100 µM,> 100 µM,> 100 µM,> 100 µM,> 100 µM,> 100 µM,> 100 µM,> 100 µM,> 100 µM,,,,,,
[O-][n+]1onc2c3nn(-c4ccccc4)nc3ccc21,> 100 µM,> 100 µM,> 100 µM,> 100 µM,> 58.3 µM,> 100 µM,> 100 µM,> 100 µM,> 100 µM,72 µM,,,,,,
CSc1nc2ccccc2c(=O)n1/N=C1\C(=O)N(CN2CCOCC2)c2ccc(Cl)cc21,> 100 µM,51.6 µM,> 100 µM,> 100 µM,33.3 µM,> 100 µM,> 100 µM,> 100 µM,> 100 µM,> 100 µM,,,,,,
